Results as given in patent US10760110B2, “Antibiotic testing and screening system” (priority 2017, dated 2020).
Converted amounts (≈) assume the structure as drawn. Read-outs that look alike come from different tables or passages of the source.

Legend:
Settings in all cases: Klebsiella pneumoniae
[1] = test system: K. pneumoniae NVT1001 and its ΔompK35/36 and/or ΔramR mutants; assay: Etest MIC, OmpK35/36 loss and AcrAB-TolC overexpression (ΔramR) strains (Table 6); type: cell-based, Klebsiella pneumoniae
Outline: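 MICs were read by Etest strip following the manufacturer's instructions, and values falling between standard two-fold dilutions were rounded up to the next two-fold step. Ceftazidime and cefotaxime were also tested by CLSI broth microdilution and interpreted against CLSI 2017 breakpoints; cephalothin used CLSI 2015 and moxifloxacin EUCAST 2017.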

[2] = test system: K. pneumoniae NVT1001 ΔramRΔompK35/36 mutant and its revertants; assay: Etest MIC, ΔramRΔompK35/36 mutant and its revertants (Table 7); type: cell-based
[3] = test system: K. pneumoniae NVT1001 strains with carbapenemase plasmids; assay: Etest MIC of β-lactams, OmpK35/36 loss, ΔramR and/or carbapenemase (Table 9); type: cell-based, Klebsiella pneumoniae
Outline: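 Cloned resistance genes in pACYC177 or pACYC184 were electroporated into K. pneumoniae NVT1001. MICs were determined by Etest and rounded up to the next two-fold value. Ceftazidime and cefotaxime against the blaOXA-48 construct were also tested by CLSI broth microdilution, with breakpoints from CLSI 2017 (cephalothin CLSI 2015, moxifloxacin EUCAST 2017).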

SMILES: CO/N=C(\C(=O)N[C@@H]1C(=O)N2C(C(=O)[O-])=C(C[N+]3(C)CCCC3)CS[C@H]12)c1csc(N)n1 [Cefepime]
- MIC ([1]; WT, NVT1001, read-out: MIC): 0.06 µg/mL (≈ 0.125 µM)
- MIC ([1]; Δ35, ΔompK35 mutant): 0.125 µg/mL (≈ 0.26 µM)
- MIC ([1]; Δ35/36, ΔompK35/36 mutant): 1 µg/mL (≈ 2.08 µM)
- MIC ([1]; Δ36, ΔompK36 mutant): 0.125 µg/mL (≈ 0.26 µM)
- MIC ([1]; ΔramR mutant): 0.5 µg/mL (≈ 1.04 µM)
- MIC ([1]; ΔramRΔ35, ΔramRΔompK35 mutant): 0.5 µg/mL (≈ 1.04 µM)
- MIC ([1]; ΔramRΔ35/36, ΔramRΔompK35/36 mutant): 2 µg/mL (≈ 4.16 µM)
- MIC ([1]; ΔramRΔ36, ΔramRΔompK36 mutant): 4 µg/mL (≈ 8.32 µM)
- MIC ([2]; ΔramRΔompK35/36::ompK35/36 revertant): 0.5 µg/mL
- MIC ([2]; ΔramRΔompK35/36::ompK35 revertant): 2 µg/mL
- MIC ([2]; ΔramRΔompK35/36::ompK36 revertant): 0.5 µg/mL
- MIC ([2]; ΔramRΔompK35/36::ramR revertant): 1 µg/mL
- MIC ([2]; ΔramRΔompK35/36::ramR::ompK35/36 revertant): 0.06 µg/mL
- MIC ([2]; ΔramRΔompK35/36::ramR::ompK35 revertant): 0.125 µg/mL
- MIC ([2]; ΔramRΔompK35/36::ramR::ompK36 revertant): 0.125 µg/mL
- MIC ([2]; ΔramRΔompK35/36 mutant): 2 µg/mL
- MIC ([3]; IMP-8 on pACYC177, WT (NVT1001), read-out: MIC): 16 µg/mL
- MIC ([3]; IMP-8 on pACYC177, Δ35 (ΔompK35 mutant)): 32 µg/mL
- MIC ([3]; IMP-8 on pACYC177, Δ35/36 (ΔompK35/36 mutant)): > 256 µg/mL
- MIC ([3]; IMP-8 on pACYC177, Δ36 (ΔompK36 mutant)): 64 µg/mL
- MIC ([3]; IMP-8 on pACYC177, ΔramR mutant): 32 µg/mL
- MIC ([3]; IMP-8 on pACYC177, ΔramRΔ35 (ΔramRΔompK35 mutant)): 64 µg/mL
- MIC ([3]; IMP-8 on pACYC177, ΔramRΔ35/36 (ΔramRΔompK35/36 mutant)): 128 µg/mL
- MIC ([3]; IMP-8 on pACYC177, ΔramRΔ36 (ΔramRΔompK36 mutant)): 128 µg/mL
- MIC ([3]; KPC-2 on pACYC177, WT (NVT1001), read-out: MIC): 64 µg/mL
- MIC ([3]; KPC-2 on pACYC177, Δ35 (ΔompK35 mutant)): 64 µg/mL
- MIC ([3]; KPC-2 on pACYC177, Δ35/36 (ΔompK35/36 mutant)): > 256 µg/mL
- MIC ([3]; KPC-2 on pACYC177, Δ36 (ΔompK36 mutant)): 64 µg/mL
- MIC ([3]; KPC-2 on pACYC177, ΔramR mutant): 64 µg/mL
- MIC ([3]; KPC-2 on pACYC177, ΔramRΔ35 (ΔramRΔompK35 mutant)): 64 µg/mL
- MIC ([3]; KPC-2 on pACYC177, ΔramRΔ35/36 (ΔramRΔompK35/36 mutant)): > 256 µg/mL
- MIC ([3]; KPC-2 on pACYC177, ΔramRΔ36 (ΔramRΔompK36 mutant)): > 256 µg/mL
- MIC ([3]; KPC-3 on pACYC177, WT (NVT1001), read-out: MIC): 128 µg/mL
- MIC ([3]; KPC-3 on pACYC177, Δ35 (ΔompK35 mutant)): 128 µg/mL
- MIC ([3]; KPC-3 on pACYC177, Δ35/36 (ΔompK35/36 mutant)): > 256 µg/mL
- MIC ([3]; KPC-3 on pACYC177, Δ36 (ΔompK36 mutant)): 256 µg/mL
- MIC ([3]; KPC-3 on pACYC177, ΔramR mutant): 128 µg/mL
- MIC ([3]; KPC-3 on pACYC177, ΔramRΔ35 (ΔramRΔompK35 mutant)): 128 µg/mL
- MIC ([3]; KPC-3 on pACYC177, ΔramRΔ35/36 (ΔramRΔompK35/36 mutant)): > 256 µg/mL
- MIC ([3]; KPC-3 on pACYC177, ΔramRΔ36 (ΔramRΔompK36 mutant)): > 256 µg/mL
- MIC ([3]; NDM-1 on pACYC177, WT (NVT1001), read-out: MIC): 32 µg/mL
- MIC ([3]; NDM-1 on pACYC177, Δ35 (ΔompK35 mutant)): 128 µg/mL
- MIC ([3]; NDM-1 on pACYC177, Δ35/36 (ΔompK35/36 mutant)): > 256 µg/mL
- MIC ([3]; NDM-1 on pACYC177, Δ36 (ΔompK36 mutant)): > 256 µg/mL
- MIC ([3]; NDM-1 on pACYC177, ΔramR mutant): > 256 µg/mL
- MIC ([3]; NDM-1 on pACYC177, ΔramRΔ35 (ΔramRΔompK35 mutant)): 256 µg/mL
- MIC ([3]; NDM-1 on pACYC177, ΔramRΔ35/36 (ΔramRΔompK35/36 mutant)): > 256 µg/mL
- MIC ([3]; NDM-1 on pACYC177, ΔramRΔ36 (ΔramRΔompK36 mutant)): > 256 µg/mL
- MIC ([3]; OXA-48 on pACYC177, WT (NVT1001), read-out: MIC): 0.5 µg/mL
- MIC ([3]; OXA-48 on pACYC177, Δ35 (ΔompK35 mutant)): 1 µg/mL
- MIC ([3]; OXA-48 on pACYC177, Δ35/36 (ΔompK35/36 mutant)): 8 µg/mL
- MIC ([3]; OXA-48 on pACYC177, Δ36 (ΔompK36 mutant)): 1 µg/mL
- MIC ([3]; OXA-48 on pACYC177, ΔramR mutant): 1 µg/mL
- MIC ([3]; OXA-48 on pACYC177, ΔramRΔ35 (ΔramRΔompK35 mutant)): 1 µg/mL
- MIC ([3]; OXA-48 on pACYC177, ΔramRΔ35/36 (ΔramRΔompK35/36 mutant)): 8 µg/mL
- MIC ([3]; OXA-48 on pACYC177, ΔramRΔ36 (ΔramRΔompK36 mutant)): 8 µg/mL
- MIC ([3]; VIM-1 on pACYC177, WT (NVT1001), read-out: MIC): 128 µg/mL
- MIC ([3]; VIM-1 on pACYC177, Δ35 (ΔompK35 mutant)): 256 µg/mL
- MIC ([3]; VIM-1 on pACYC177, Δ35/36 (ΔompK35/36 mutant)): > 256 µg/mL
- MIC ([3]; VIM-1 on pACYC177, Δ36 (ΔompK36 mutant)): > 256 µg/mL
- MIC ([3]; VIM-1 on pACYC177, ΔramR mutant): > 256 µg/mL
- MIC ([3]; VIM-1 on pACYC177, ΔramRΔ35 (ΔramRΔompK35 mutant)): > 256 µg/mL
- MIC ([3]; VIM-1 on pACYC177, ΔramRΔ35/36 (ΔramRΔompK35/36 mutant)): > 256 µg/mL
- MIC ([3]; VIM-1 on pACYC177, ΔramRΔ36 (ΔramRΔompK36 mutant)): > 256 µg/mL
- MIC ([3]; no supplemental plasmid, WT (NVT1001), read-out: MIC): 0.06 µg/mL
- MIC ([3]; no supplemental plasmid, Δ35 (ΔompK35 mutant)): 0.125 µg/mL
- MIC ([3]; no supplemental plasmid, Δ35/36 (ΔompK35/36 mutant)): 1 µg/mL
- MIC ([3]; no supplemental plasmid, Δ36 (ΔompK36 mutant)): 0.125 µg/mL
- MIC ([3]; no supplemental plasmid, ΔramR mutant): 0.5 µg/mL
- MIC ([3]; no supplemental plasmid, ΔramRΔ35 (ΔramRΔompK35 mutant)): 0.5 µg/mL
- MIC ([3]; no supplemental plasmid, ΔramRΔ35/36 (ΔramRΔompK35/36 mutant)): 2 µg/mL
- MIC ([3]; no supplemental plasmid, ΔramRΔ36 (ΔramRΔompK36 mutant)): 4 µg/mL
